In US20110151033A1, “ORTHOSIPHON STAMINEUS EXTRACTS FOR USE AS A COGNITION ENHANCER” (BIOTROPICS MALAYSIA BHD, priority 2009, published 2011):

Test system: mature adult rat
Assay: Social Recognition Test (SRT), in vivo
Conditions: 3 mg/kg, same administration regime
Description: The method, which detects memory enhancing activity, follows that described by Lemaire et al. (Psychopharmacology, 115, 435-440, 1994). An unfamiliar juvenile rat was introduced into the individual home cage of a mature adult rat for 5 minutes. Following this first contact (C1), the juvenile was returned to its isolation cage, until a second contact of 5 minutes with the same mature adult rat (C2), 120 minutes later was allowed.
The time the adult rat spended investigating (sniffing, grooming, licking, closely following) the juvenile at each contact was recorded. A recognition index (=C2/C1) was calculated. Under such conditions, a mature adult rat fails to recognize the juvenile as familiar, as indicated by an absence of reduction in the duration of social investigatory behaviour at C2.
12 rats were studied per group (in total 3 groups, vehicle, test compound, positive control). The test was performed blind. The test compound (e.g. the extract according example 3) was evaluated at a dose of 1 g/kg administered p.o. immediately after Cl (i.e. 120 minutes before C2), and compared with a vehicle control group. The test substance was dispersed in 4% Cremophor El, (polyoxyethylated castor oil, BASF, Ludwigshafen, Germany) in physiological saline which served as the vehicle. […] Data were analyzed by comparing treated groups with appropriate control using unpaired Student's t tests. […]

SMILES	effect of the positive control (presumably on the Recognition Index) [%]
COc1cc2c(cc1OC)C(=O)C(CC1CCN(Cc3ccccc3)CC1)C2 (stereo not drawn) [Donepezil]	−28

Target: T1, ADORA2A (Homo sapiens, UniProt P29274)
T1 construct: host or cells: HEK-293
T1 sequence (P29274 whole entry): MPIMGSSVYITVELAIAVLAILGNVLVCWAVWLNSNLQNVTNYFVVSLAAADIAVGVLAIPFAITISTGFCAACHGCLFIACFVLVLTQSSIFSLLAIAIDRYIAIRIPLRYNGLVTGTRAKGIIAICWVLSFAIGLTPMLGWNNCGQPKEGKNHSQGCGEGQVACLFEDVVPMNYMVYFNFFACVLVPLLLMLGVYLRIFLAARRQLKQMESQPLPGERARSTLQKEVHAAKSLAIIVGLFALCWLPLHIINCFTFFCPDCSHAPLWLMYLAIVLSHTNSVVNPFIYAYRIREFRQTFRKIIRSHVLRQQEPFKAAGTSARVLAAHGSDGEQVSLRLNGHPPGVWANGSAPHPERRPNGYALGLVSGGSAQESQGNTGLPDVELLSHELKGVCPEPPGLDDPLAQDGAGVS
Assay: ADORA2A in vitro receptor assay, [3H]CGS-21680 radioligand binding
Conditions: human recombinant HEK-293 cells, 0.05 μM [3H] CGS-21680
Description: The methods employed in this study have been adapted from the scientific literature (Varani K, Gessi S, Dalpiaz A, Borea P A (1996) Br. J. Pharmacol. 117, 1693 Pharmacological and biochemical characterization of purified A2A adenosine receptors in human platelet membranes by [3H]CGS-21680 binding) to maximize reliability and reproducibility. Reference standards are run as an integral part of each assay to ensure the validity of the results obtained. Assays are performed under conditions described below. (assay number 200610, Ricerca Biosciences, LLC, Taipei, Taiwan). • Source: Human recombinant HEK-293 cells • Ligand: 0.05 μM [3H]

SMILES	inhibition at 10 µM [%]
C=C[C@@]1(C)C[C@@H](OC(=O)c2ccccc2)[C@H]2[C@](O)(C1=O)[C@H](OC(C)=O)C[C@H]1C(C)(C)[C@H](O)[C@H](OC(C)=O)[C@H](OC(=O)c3ccccc3)[C@@]12C [[4], Orthosiphol A]	42
C=C[C@@]1(C)C[C@@H](OC(=O)c2ccccc2)[C@@H]2[C@@]3(C)C=C(OC(C)=O)C(=O)C(C)(C)[C@@H]3C[C@@H](OC(C)=O)[C@@]2(O)C1=O [[5], Orthosiphol D]	52
C=C[C@@]1(C)CC(=O)[C@H]2[C@](O)(C1=O)[C@H](OC(C)=O)C[C@H]1C(C)(C)[C@H](OC(=O)c3ccccc3)[C@H](OC(C)=O)[C@H](OC(=O)c3ccccc3)[C@@]12C [[6], Orthosiphonone A]	42
C=CC1C(OC(=O)c2ccccc2)C2C(O)(C(=O)C1(C)O)C(OC(C)=O)CC1C(C)(C)C(O)C(OC(C)=O)C(OC(=O)c3ccccc3)C12C (stereo not drawn) [[7], Neoorthosiphol A]	64
C=CC1C(OC(=O)c2ccccc2)C2C(O)(C(=O)C1(C)O)C(OC(C)=O)CC1C(C)(C)C(OC(C)=O)C(OC(C)=O)C(OC(=O)c3ccccc3)C12C (stereo not drawn) [[8], Staminol A]	42
